Legend:
[1] = DPN concentration 24 hours after dosing in adoptive EAE mice (Example 2); assay type: in vivo
Protocol: This experiment was larger since 2 sets of mice (donors and recipients) were needed and 2 doses were used, making the adoptive EAE experiment 4 times larger than the active EAE experiment 1.
Brain and spinal cord levels were undetectable 24 hours after dosing.

adoptive EAE = adoptive EAE clinical score (Example 2); assay type: in vivo, mice; conditions: FIG. 2A; for EAE clinical score, dose dependence: high (8 mg/kg/day) and low (2 mg/kg/day) dose
Source text: Active EAE induction in Example 1 uses pertussis toxin to artificially make the BBB more permeable and permit more infiltration of activated Th1/Th17 immune cells into the CNS. […] Thus, an alternative EAE induction method was used. Adoptive EAE uses MOG primed and activated immune cells from donor immunized mice for subsequent transfer into recipient mice with no administration of pertussis toxin. Thus, the blood brain barrier interactions in adoptive EAE are more physiologic than in active EAE. […] This experiment was larger since 2 sets of mice (donors and recipients) were needed and 2 doses were used, making the adoptive EAE experiment 4 times larger than the active EAE experiment 1. […] Brain and spinal cord levels were undetectable 24 hours after dosing.

EAE = conditions: cited from earlier work
active EAE = active EAE clinical score (Example 1); assay type: in vivo, C57BL6 female mice; conditions: high dose (8 mg/kg DPN, 10.8 mg/kg Compound 1), every other day, day 12 to day 48; FIG. 1A
[2] = concentrations over time in plasma, spinal cord and brain, adoptive EAE setup (Example 4); assay type: in vivo, mice; conditions: for persistence in brain and spinal tissue: 12 hours
Protocol: The experimental setup and monitoring was the same as in Example 2. […] Both Compounds 1 and 2 persisted in brain and spinal tissue at 12 hours.

multiple sclerosis = conditions: cited from earlier work
[3] = DPN concentration in plasma, spinal cord and brain of active EAE mice (Example 1); conditions: three hours after the end of disease; FIG. 1B-1D
[4] = tissue concentrations of DPN in healthy mice (Example 3); assay type: in vivo; conditions: for levels of DPN in plasma, brain and spinal cord, compared to dosing with DPN: molar equivalent doses
Protocol: Compound 1 levels were not measured. […] At 12 hours, only high dose Compound 1 was detectable in plasma.
This experiment was repeated and the data above was confirmed.
This experiment was repeated with fresher standards and faster freezing of tissues once obtained from the mouse sacrifice.

[5] = MS patients, phase 2 clinical trial

For `N#CC(Cc1ccc(O)cc1)c1ccc(O)cc1` (stereo not drawn) [DPN, 2,3-bis(4-hydroxyphenyl)propanenitrile, reference compound], the “brain and spinal cord levels” value [1] is listed as “undetectable”, the “EAE clinical score, dose dependence” value (adoptive EAE) is listed as “dose responses” and the “efficacy in EAE of dosing regimen” value (EAE; dosing every two days, shown in the past) is listed as “efficacious”. For the same molecule, the “clinical EAE disease severity” value (EAE; known treatment of EAE) was “reduces clinical EAE disease severity”, the “tolerability of dosing regimen” value (EAE; mouse, in vivo) was “tolerable” and the “effect on EAE disease progression (EAE clinical score)” value (active EAE) was “protective effects”.
In the case of `CCC(=O)Oc1ccc(CC(C#N)c2ccc(OC(=O)CC)cc2)cc1` (stereo not drawn) [Compound 2], the “persistence in brain and spinal tissue” value [2] was “persisted” and the “concentration in plasma, spinal cord and brain tissue, among DPN, Compound 1 and Compound 2” value ([2]; first 6 hours after treatment, FIG. 7A-7C) was “highest concentration”.
For `C[C@]12CC[C@@H]3c4ccc(O)cc4CC[C@H]3[C@@H]1C[C@@H](O)[C@@H]2O` [estriol], the fatigue (multiple sclerosis; [5]) is given as “reduced fatigue”, the relapses (multiple sclerosis; [5]) is given as “reduced relapses” and the “cortical gray matter atrophy” value (multiple sclerosis; estriol as compared to placebo treated MS patients) is given as “spared”.
In the case of `CC(=O)Oc1ccc(C[C@@H](C#N)c2ccc(OC(C)=O)cc2)cc1` [Compound 1], the “amounts of DPN in plasma, spinal cord tissue and brain tissue” value [3] was “improvement in maintaining effective amounts of DPN”, the “brain and spinal cord levels” value [1] was “undetectable” and the “plasma concentration of DPN, Compound 1 vs DPN” value ([1]; FIG. 2B) was “no difference”. The “efficacy on EAE clinical score compared to DPN” value (adoptive EAE; adoptive EAE) was “more efficacy”, the “EAE clinical score, dose dependence” value (adoptive EAE) was “dose responses” and the “effect on EAE disease progression (EAE clinical score)” value (active EAE) was “protective effects”. For the same molecule, the “levels of DPN in plasma, brain and spinal cord, compared to dosing with DPN” value ([4]; 3 and 6 hours) was “higher”, the “levels of DPN in plasma, brain and spinal cord, compared to dosing with DPN” value ([4]; 15 minutes) was “lower” and the “DPN level in plasma” value ([4]; 12 hours, high dose) was “detectable”. For the same molecule, the “persistence in brain and spinal tissue” value [2] was “persisted”.
